Assay results from ChEMBL document CHEMBL3745625, “Design and synthesis of novel androgen receptor antagonists via molecular modeling” (Bioorg Med Chem, 2016).
Activity calls are given as the source filed them. The rule behind the calls is not given here.

Key:
[1] = test system: C2C12; assay: Cytotoxicity against mouse C2C12 cells assessed as reduction in cell viability at 10 uM after 3 days by MTT assay; assay type: cell-based; details: c2c12, 72 h
[2] = test system: LNCaP; assay: Cytotoxicity against human LNCAP cells assessed as reduction in cell viability at 10 uM after 3 days by MTT assay in presence of DHT and E2; assay type: functional, cell-based
[3] = test system: LNCaP; assay: Cytotoxicity against human LNCAP cells assessed as reduction in cell viability after 4 days by MTT assay in presence of DHT and E2; assay type: functional, cell-based; details: 96 h
[4] = target: T1, Androgen receptor (Mus musculus) (UniProt P19091); assay: Antagonist activity at mouse androgen receptor expressed in mouse C2C12 cells at 5 uM pretreated for 1 day measured 36 hrs post transfection by luciferase reporter gene assay in presence of DHT; assay type: cell-based
T1 sequence (whole entry): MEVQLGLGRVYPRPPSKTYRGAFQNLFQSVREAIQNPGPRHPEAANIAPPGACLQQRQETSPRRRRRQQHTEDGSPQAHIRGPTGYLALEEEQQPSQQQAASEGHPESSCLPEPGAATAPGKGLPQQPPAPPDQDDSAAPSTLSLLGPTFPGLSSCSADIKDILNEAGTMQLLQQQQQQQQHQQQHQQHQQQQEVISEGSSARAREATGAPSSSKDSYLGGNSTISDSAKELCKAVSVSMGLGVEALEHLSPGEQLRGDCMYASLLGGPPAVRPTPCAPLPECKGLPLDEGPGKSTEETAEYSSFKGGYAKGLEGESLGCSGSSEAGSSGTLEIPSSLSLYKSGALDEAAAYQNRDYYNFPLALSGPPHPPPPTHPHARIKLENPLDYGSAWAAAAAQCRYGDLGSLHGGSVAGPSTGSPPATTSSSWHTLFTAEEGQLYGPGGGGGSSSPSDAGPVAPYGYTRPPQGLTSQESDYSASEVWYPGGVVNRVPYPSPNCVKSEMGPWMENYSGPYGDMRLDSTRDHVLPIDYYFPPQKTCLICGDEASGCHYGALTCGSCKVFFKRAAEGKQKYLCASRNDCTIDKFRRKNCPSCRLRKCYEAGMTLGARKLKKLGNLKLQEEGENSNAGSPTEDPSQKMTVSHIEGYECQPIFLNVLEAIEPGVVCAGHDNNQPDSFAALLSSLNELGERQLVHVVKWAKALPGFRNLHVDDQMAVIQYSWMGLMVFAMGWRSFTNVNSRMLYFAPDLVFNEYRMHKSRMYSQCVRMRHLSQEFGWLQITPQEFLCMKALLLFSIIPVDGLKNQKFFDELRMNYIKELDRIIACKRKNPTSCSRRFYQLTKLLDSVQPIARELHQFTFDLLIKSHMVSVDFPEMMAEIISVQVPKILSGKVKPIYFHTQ

[5] = target: T2, Glucocorticoid receptor (Homo sapiens) (UniProt P04150); assay: Antagonist activity at glucocorticoid receptor (unknown origin) expressed in mouse C2C12 cells at 5 uM pretreated for 1 day measured 36 hrs post transfection by luciferase reporter gene assay in presence of GR agonist […]; assay type: cell-based
T2 sequence (whole entry): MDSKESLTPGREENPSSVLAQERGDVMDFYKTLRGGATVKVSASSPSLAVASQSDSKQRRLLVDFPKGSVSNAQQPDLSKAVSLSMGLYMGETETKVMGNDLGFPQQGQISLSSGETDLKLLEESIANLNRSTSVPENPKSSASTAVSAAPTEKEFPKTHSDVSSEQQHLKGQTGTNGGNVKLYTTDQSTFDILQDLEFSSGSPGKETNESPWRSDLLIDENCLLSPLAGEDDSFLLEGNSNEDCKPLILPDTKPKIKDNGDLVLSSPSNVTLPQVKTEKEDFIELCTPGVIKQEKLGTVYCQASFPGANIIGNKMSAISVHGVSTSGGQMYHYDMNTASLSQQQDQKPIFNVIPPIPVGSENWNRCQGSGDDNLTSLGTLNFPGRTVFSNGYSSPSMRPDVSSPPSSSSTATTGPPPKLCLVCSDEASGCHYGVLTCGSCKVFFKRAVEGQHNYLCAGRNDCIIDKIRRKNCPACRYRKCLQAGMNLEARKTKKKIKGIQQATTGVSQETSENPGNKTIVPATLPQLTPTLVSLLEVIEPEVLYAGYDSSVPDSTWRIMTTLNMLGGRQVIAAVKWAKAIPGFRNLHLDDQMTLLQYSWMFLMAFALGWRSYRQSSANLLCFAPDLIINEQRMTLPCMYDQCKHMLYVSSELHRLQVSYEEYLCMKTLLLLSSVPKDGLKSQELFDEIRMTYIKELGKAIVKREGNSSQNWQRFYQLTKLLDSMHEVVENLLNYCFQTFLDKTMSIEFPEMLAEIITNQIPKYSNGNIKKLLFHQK

[6] = test system: LNCaP; assay: Cytotoxicity against human LNCAP cells assessed as growth inhibition at 10 uM after 5 days by MTT assay relative to control; assay type: functional
[7] = target: T3, Estrogen receptor (Homo sapiens) (UniProt P03372); assay: Antagonist activity at human estrogen receptor expressed in mouse C2C12 cells at 5 uM pretreated for 1 day measured 36 hrs post transfection by luciferase reporter gene assay in presence of ER agonist estradiol; assay type: cell-based
T3 sequence (whole entry): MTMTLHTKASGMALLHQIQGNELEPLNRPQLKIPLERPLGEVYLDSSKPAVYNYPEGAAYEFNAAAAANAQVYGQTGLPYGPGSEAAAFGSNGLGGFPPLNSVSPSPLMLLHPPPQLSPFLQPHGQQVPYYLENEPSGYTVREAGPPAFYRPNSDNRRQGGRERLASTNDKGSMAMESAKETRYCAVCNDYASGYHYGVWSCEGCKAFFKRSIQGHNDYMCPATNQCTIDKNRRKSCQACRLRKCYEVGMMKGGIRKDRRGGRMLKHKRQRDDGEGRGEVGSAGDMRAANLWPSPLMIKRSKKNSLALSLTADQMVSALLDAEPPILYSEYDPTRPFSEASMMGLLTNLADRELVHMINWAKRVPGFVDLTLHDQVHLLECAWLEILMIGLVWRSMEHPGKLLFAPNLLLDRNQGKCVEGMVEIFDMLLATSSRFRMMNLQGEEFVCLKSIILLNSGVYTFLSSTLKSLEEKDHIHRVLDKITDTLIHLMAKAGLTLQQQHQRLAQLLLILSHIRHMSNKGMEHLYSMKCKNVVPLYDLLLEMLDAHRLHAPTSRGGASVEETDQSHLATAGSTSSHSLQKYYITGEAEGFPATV

COc1cccc(NC(=O)c2cnc(N3CCc4ccccc4C3)nc2)c1
Activity [1]: Non-toxic | Activity [2]: Active | IC50 [3]: 580 nM | inhibition [4]: Active | inhibition [5]: inactive

Cc1cccc(NC(=O)c2ccc(N3CCc4ccccc4C3)nc2)n1
IC50 [3]: 4460 nM

Cc1cccc(NC(=O)c2ccc(N3CCc4cc(OCCCc5ccccc5)ccc4C3)nc2)n1
Activity [1]: Non-toxic | Activity [2]: Active | IC50 [3]: 350 nM | inhibition of growth at 10 µM ([6]; 120 h, read-out: GI): 80% | inhibition [4]: Active | inhibition [5]: inactive

CCCOc1ccc2c(c1)CCN(c1ccc(C(=O)Nc3cccc(C)n3)cn1)C2
Activity [1]: Non-toxic | Activity [2]: Active | IC50 [3]: 1010 nM | growth inhibition (GI) [6]: Active | inhibition [4]: Active | inhibition [5]: inactive

Cc1cccc(NC(=O)c2ccc(N3CCc4cc(O)ccc4C3)nc2)n1
Activity [1]: Non-toxic | Activity [2]: Active | IC50 [3]: 1250 nM | growth inhibition (GI) [6]: Active | inhibition [4]: Active | inhibition [7]: Active | inhibition [5]: inactive

COc1ccc2c(c1)CCN(c1cnc(C(=O)Nc3cccc(C)n3)cn1)C2
Activity [1]: Non-toxic | Activity [2]: Active | IC50 [3]: 490 nM | growth inhibition (GI) [6]: Active | inhibition [4]: Active | inhibition [5]: inactive

CC(O)(CS(=O)(=O)c1ccc(F)cc1)C(=O)Nc1ccc(C#N)c(C(F)(F)F)c1 (stereo not drawn) [BICALUTAMIDE]
IC50 [3]: 2380 nM

CCCCOc1ccc2c(c1)CCN(c1ccc(C(=O)Nc3cccc(C)n3)cn1)C2
Activity [1]: Non-toxic | Activity [2]: Active | IC50 [3]: 410 nM | growth inhibition (GI) [6]: Active | inhibition [4]: Active | inhibition [5]: inactive
